Patent US12590056B2, “IGF2BP2 inhibitors and uses thereof” (CITY OF HOPE, priority 2020, dated 2026)
“Also recorded” adds a separate entry of the source.

Assays:
IGF2BP2 [1] = biological target: T1, IGF2BP2 (Homo sapiens, UniProt Q9Y6M1); assay: Biological assays of IGF2BP2 inhibition (purified fractions and synthesized compounds); details: for effectiveness, synthesized compound: compounds synthesized based on the predicted structures
Description: (§1) Virtual screening of library compounds and lead compound identification. NCI DTP library of approximately 260,000 compounds was screened. Screening included docking on the KH3 domain of IGF2BP2. Over 500 compounds were identified for experimental validation. NSC69557, termed CWI1, was identified as a top hit. Mass spectrometry (MS) identified CWI1 as a mixture including three major peaks: CWI1, CWI1-1, and CWI1-2. Their structures were predicted based on nuclear magnetic resonance (NMR) and MS data. The compound peaks for the predicted CWI1-1 and CWI1-2 were purified by HPLC. […] CWI1, CWI1-1, and CWI1-2 were synthesized based on the predicted structures. […] Thus, the structures of CWI1-1 and CWI1-2 were confirmed.

KH3 domain of IGF2BP2 = biological target: T2, KH3 domain of IGF2BP2 (Homo sapiens, UniProt Q9Y6M1); assay: Virtual screening of NCI DTP library (docking) followed by experimental validation; details: approximately 260,000 compounds screened, over 500 taken to experimental validation
T2 construct: Screening included docking on the KH3 domain of IGF2BP2
Description: as §1

IGF2BP2 target genes = assay: Expression of IGF2BP2 target genes and of IGF2BP2 after treatment; type: cell-based; details: after compound treatment
Description: (§2) FIGS. 4A-4B. CWI1-2 inhibits binding of IGF2BP2 to m^6A-modified RNA and suppresses expression of the oncogenic targets of IGF2BP2.

[2] = test system: IGF2BP2-high AML cell lines; assay: Cell differentiation in IGF2BP2-high AML cell lines; type: cell-based, human; details: 24-hour treatment
Description: (§3) FIGS. 7A-7B. Effects of CWI1-2 on cell differentiation in acute myeloid leukemia (AML).

[3] = test system: IGF2BP2-high AML cell lines; assay: Apoptosis in IGF2BP2-high AML cell lines; type: cell-based, human; details: 24-hour treatment
Description: (§4) FIGS. 6A-6B. Effects of CWI1-2 on apoptosis in human acute myeloid leukemia (AML) cells.

[4] = test system: primary murine MLL-AF9 AML cells; assay: Engraftment of AML cells in bone marrow transplant (BMT) recipient mice; type: in vivo; details: 5 mg/kg, i.v., daily for 7 days from ten days after BMT; peripheral blood 3 days after last treatment, flow cytometry
Procedure: (§5) FIGS. 8A-8B. […] FIG. 8A: Ten days after BMT with primary murine MLL-AF9 AML cells, recipient mice were given vehicle control (CT) or CWI1-2 daily for 7 days (5 mg/kg, i.v.). Peripheral blood was taken 3 days after the last treatment and assessed by flow cytometry.

[5] = Body weight of BMT recipient mice; type: in vivo; details: 5 mg/kg, i.v., daily for 7 days
Procedure: as §5

IGF2BP2 [6] = biological target: T1, IGF2BP2; assay: Cellular Thermal Shift Assay (CETSA); type: binding; details: CETSA also run for IGF2BP1 and IGF2BP3; western blot
Procedure: FIGS. 2A-2C. […] Cellular Thermal Shift Assay (CETSA) was conducted. The principle of the assay is unbound proteins denature and precipitate at elevated temperatures, while drug-bound proteins tend to remain in solution. Cells are seeded and treated. Cell pellets are washed, harvested, and heated. Cells are lysed and centrifuged. Western blot is performed. FIG. 2A: Results of CETSA for IGF2BP2. FIG. 2B: Results of CETSA for IGF2BP1. FIG. 2C: Results of CETSA for IGF2BP3.

IGF2BP2 [7] = biological target: T1, IGF2BP2; assay: Drug Affinity Responsive Target Stability (DARTS) assay; type: binding; details: protection from degradation by proteases
Procedure: FIG. 3. […] Drug Affinity Responsive Target Stability (DARTS) assay was performed. The principle of the assay is binding of compound to proteins protects proteins from degradation by proteases.

[8] = biological target: IGF2BP2 binding to m^6A-modified single strand RNA (SS-m^6A) (Homo sapiens, UniProt Q9Y6M1); assay: RNA pull-down assay; type: biochemical
Description: as §2

[9] = test system: IGF2BP2-low acute leukemia cell lines; assay: Apoptosis in IGF2BP2-low acute leukemia cell lines; type: cell-based, human; details: 24-hour treatment
Description: as §4

[10] = test system: IGF2BP2-low acute leukemia cell lines; assay: Cell differentiation in IGF2BP2-low acute leukemia cell lines; type: cell-based; details: 24-hour treatment
Description: as §3

[11] = test system: human acute myeloid leukemia (AML) cells; assay: Anti-cancer activity in vitro (viability of human AML cells); type: cell-based
Description: FIGS. 5A-5E. IC50 of the lead compound CWI1-2 in human acute myeloid leukemia (AML) cells. FIG. 5A: Relative viability vs. CWI1-2 concentration in healthy bone marrow #1. FIG. 5B: Relative viability vs. CWI1-2 concentration in healthy bone marrow #2. FIG. 5C: Relative viability vs. CWI1-2 concentration in AML blast cells collected from a primary AML patient. FIG. 5D: Relative survival vs. log10 concentration of CWI1-2 in IGF2BP2-high AML cell lines. FIG. 5E: Relative survival vs. log10 concentration of CWI1-2 in IGF2BP2-low AML cell lines.

T1 sequence (Q9Y6M1 whole entry, the tested form may be a part): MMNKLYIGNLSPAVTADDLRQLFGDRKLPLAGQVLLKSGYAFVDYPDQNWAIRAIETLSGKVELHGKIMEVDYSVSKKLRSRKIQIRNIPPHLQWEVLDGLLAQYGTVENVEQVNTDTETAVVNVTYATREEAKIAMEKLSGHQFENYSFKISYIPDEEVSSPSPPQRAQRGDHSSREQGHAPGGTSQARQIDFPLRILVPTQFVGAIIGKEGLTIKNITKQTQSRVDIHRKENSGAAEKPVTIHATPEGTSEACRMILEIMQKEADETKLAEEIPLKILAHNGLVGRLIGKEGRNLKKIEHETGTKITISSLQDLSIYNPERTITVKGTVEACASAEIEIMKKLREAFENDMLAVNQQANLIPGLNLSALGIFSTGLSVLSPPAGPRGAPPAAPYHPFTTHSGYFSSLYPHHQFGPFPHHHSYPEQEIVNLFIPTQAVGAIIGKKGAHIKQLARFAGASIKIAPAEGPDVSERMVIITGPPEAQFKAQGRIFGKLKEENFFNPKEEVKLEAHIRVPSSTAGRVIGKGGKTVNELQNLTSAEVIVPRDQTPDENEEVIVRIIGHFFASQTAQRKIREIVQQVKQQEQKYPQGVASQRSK
IGF2BP2 binding to m^6A-modified single strand RNA (SS-m^6A), sequence (Q9Y6M1 whole entry): as the sequence (Q9Y6M1 whole entry, the tested form may be a part) above
T2 sequence (Q9Y6M1 427-492 limits assumed): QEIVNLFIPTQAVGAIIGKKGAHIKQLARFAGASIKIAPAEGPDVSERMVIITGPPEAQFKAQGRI

effectiveness, synthesized compound (IGF2BP2 [1])	hit ranking in library screening (KH3 domain of IGF2BP2)	activity as inhibitor of IGF2BP2, HPLC-purified fraction (IGF2BP2 [1]; fractions purified by HPLC from the NSC69557 mixture)	binding to IGF2BP2 (DARTS) (IGF2BP2 [7])	Structure (SMILES)	IGF2BP2 expression (IGF2BP2 target genes)	expression of IGF2BP2 target genes (IGF2BP2 target genes)	cell differentiation [2]	apoptosis [3]	engraftment of AML cells in BMT recipient mice [4]	effect on body weight of recipient mice [5]	binding to IGF2BP2 (CETSA) (IGF2BP2 [6])	binding of IGF2BP2 to m^6A-modified RNA in the presence of compound [8]	apoptosis [9]	cell differentiation [10]	anti-cancer activity in vitro [11]
less effective	top hit			N/C(=N\N=C\c1cc(Cl)ccc1O)N/N=C\c1cc(Cl)ccc1O [CWI1]											
effective				NN/C(=N\N=C\c1cc(Cl)ccc1O)N/N=C\c1cc(Cl)ccc1O [CWI1-1]											
much more effective		most active inhibitor of IGF2BP2	direct and preferential binding	Oc1ccc(Cl)cc1/C=N\N/C(=N/N=C/c1cc(Cl)ccc1O)N/N=C/c1cc(Cl)ccc1O [CWI1-2]	without affecting IGF2BP2 expression	reduces expression of IGF2BP2 target genes; also recorded: suppressing expression of its oncogenic targets such as MYC oncogene	induces remarkable cell differentiation; also recorded: significantly promoted	induces remarkable apoptosis; also recorded: significantly promoted	inhibits engraftment; also recorded: remarkably inhibit engraftment	little effect on body weight	direct and preferential binding; also recorded: specifically binds to IGF2BP2	decreased binding of IGF2BP2 to m^6A-modified single strand RNA (SS-m^6A); also recorded: prevent IGF2BP2 from binding to its mRNA targets; also recorded: specifically inhibits binding of IGF2BP2 to its mRNA targets with m^6A modification	much less likely	much less likely	potent anti-cancer activities in vitro at nanomolar concentrations; also recorded: potent anti-cancer efficacy
